Data: ChEMBL document CHEMBL5126592, “Design, synthesis and activity against drug-resistant bacteria evaluation of C-20, C-23 modified 5-O-mycaminosyltylonolide derivatives” (Eur J Med Chem, 2022)
≈ marks a conversion by molar mass, not a printed value. Calls of active or inactive are those of the source. The rule behind the calls is not given here.

How the values were obtained:
[1] = Genotoxicity in Salmonella typhimurium TA98 assessed as number of revertants at 1.6x10^-6 mg/plate incubated for 72 hrs in presence of liver S9 fraction by Ames test (reference value: 43.67+/- 7.1); assay type: toxicity, subcellular; conditions: salmonella enterica subsp. enterica serovar typhimurium, s9, 72 h
[2] = Genotoxicity in Salmonella typhimurium TA98 assessed as number of revertants at 8x10^-6 mg/plate incubated for 72 hrs in presence of liver S9 fraction by Ames test (reference value: 43.67+/- 7.1); assay type: toxicity, subcellular; conditions: salmonella enterica subsp. enterica serovar typhimurium, s9, 72 h
[3] = Genotoxicity in Salmonella typhimurium TA98 assessed as number of revertants at 1.6x10^-6 mg/plate incubated for 72 hrs in absence of liver S9 fraction by Ames test (reference value: 57.33 +/- 3.06); assay type: toxicity; conditions: salmonella enterica subsp. enterica serovar typhimurium, s9, 72 h
[4] = Genotoxicity in Salmonella typhimurium TA98 assessed as number of revertants at 8x10^-6 mg/plate incubated for 72 hrs in absence of liver S9 fraction by Ames test (reference value: 57.33 +/- 3.06); assay type: toxicity; conditions: salmonella enterica subsp. enterica serovar typhimurium, s9, 72 h
[5] = Toxicity in Kunming mouse infected with Staphylococcus aureus ATCC 25923 assessed as normal alveolar size and morphology at 20 to 40 mg/kg, iv measured after 1 hr by hematoxylin and eosin staining based microscopic analysis; assay type: organism-based; conditions: in vivo, dose 20-40 mg/kg
[6] = Toxicity in Kunming mouse infected with Staphylococcus aureus ATCC 25923 assessed as intact lung tissue structure at 20 to 40 mg/kg, iv measured after 1 hr by hematoxylin and eosin staining based microscopic analysis; assay type: organism-based; conditions: in vivo, dose 20-40 mg/kg
Staphylococcus aureus [7] = experiment: Antibacterial activity against Staphylococcus aureus ATCC 25923 infected in kunming mouse assessed as reduction in lung congestion at 20 to 40 mg/kg, iv measured after 1 hr by hematoxylin and eosin staining based microscopic analysis; assay type: functional, organism-based; conditions: dose 20-40 mg/kg
Staphylococcus aureus [8] = experiment: Antibacterial activity against Staphylococcus aureus ATCC 29213 incubated for 16 to 20 hrs using 10^7 CFU/ml bacterial inoculum by broth microdilution method; assay type: functional; conditions: time 16-20 hrs
Staphylococcus aureus [9] = experiment: Antibacterial activity against Staphylococcus aureus ATCC 29213 incubated for 16 to 20 hrs using 10^6 CFU/ml bacterial inoculum by broth microdilution method; assay type: functional; conditions: time 16-20 hrs
Escherichia coli [10] = experiment: Antibacterial activity against Escherichia coli ATCC 25922 incubated for 16 to 20 hrs using 10^7 CFU/ml bacterial inoculum by broth microdilution method; assay type: functional; conditions: time 16-20 hrs
Escherichia coli [11] = experiment: Antibacterial activity against Escherichia coli ATCC 25922 at pH 7 incubated for 16 to 20 hrs by broth microdilution method; assay type: functional; conditions: time 16-20 hrs
Staphylococcus aureus [12] = experiment: Antibacterial activity against Staphylococcus aureus ATCC 29213 at pH 8.6 incubated for 16 to 20 hrs in presence of 50% foetal bovine serum by broth microdilution method; assay type: functional; conditions: time 16-20 hrs
Escherichia coli [13] = experiment: Antibacterial activity against Escherichia coli ATCC 25922 at pH 7.2 incubated for 16 to 20 hrs by broth microdilution method; assay type: functional; conditions: time 16-20 hrs
[14] = tested on: Streptococcus dysgalactiae; experiment: Antibacterial activity against Streptococcus dysgalactiae incubated for 16 to 20 hrs by broth microdilution method; assay type: functional; conditions: time 16-20 hrs
Escherichia coli [15] = experiment: Bactericidal activity against Escherichia coli ATCC 25922 incubated for 20 to 24 hrs by CLSI based analysis; assay type: functional; conditions: time 20-24 hrs
Staphylococcus aureus [16] = experiment: Bactericidal activity against Staphylococcus aureus ATCC 29213 incubated for 20 to 24 hrs by CLSI based analysis; assay type: functional; conditions: time 20-24 hrs
Escherichia coli [17] = experiment: Antibacterial activity against Escherichia coli ATCC 25922 at pH 8 incubated for 16 to 20 hrs by broth microdilution method; assay type: functional; conditions: time 16-20 hrs
Staphylococcus aureus [18] = experiment: Antibacterial activity against Staphylococcus aureus ATCC 29213 at pH 7 incubated for 16 to 20 hrs by broth microdilution method; assay type: functional; conditions: time 16-20 hrs
Staphylococcus aureus [19] = experiment: Antibacterial activity against Staphylococcus aureus ATCC 29213 at pH 7.4 incubated for 16 to 20 hrs by broth microdilution method; assay type: functional; conditions: time 16-20 hrs
Staphylococcus aureus [20] = experiment: Antibacterial activity against Staphylococcus aureus ATCC 29213 at pH 8.6 incubated for 16 to 20 hrs by broth microdilution method; assay type: functional; conditions: time 16-20 hrs
Escherichia coli [21] = experiment: Antibacterial activity against Escherichia coli ATCC 25922 incubated for 16 to 20 hrs in presence of 5% foetal bovine serum by broth microdilution method; assay type: functional; conditions: time 16-20 hrs
Escherichia coli [22] = experiment: Antibacterial activity against Escherichia coli ATCC 25922 incubated for 16 to 20 hrs in presence of 50% foetal bovine serum by broth microdilution method; assay type: functional; conditions: time 16-20 hrs
Staphylococcus aureus [23] = experiment: Antibacterial activity against Staphylococcus aureus ATCC 29213 at pH 8.6 incubated for 16 to 20 hrs in presence of 5% foetal bovine serum by broth microdilution method; assay type: functional; conditions: time 16-20 hrs
[24] = Genotoxicity in Salmonella typhimurium TA100 assessed as number of revertants at 4x10^-5 mg/plate incubated for 72 hrs in absence of liver S9 fraction by Ames test (reference value: 221.67 +/- 15.57); assay type: toxicity; conditions: salmonella enterica subsp. enterica serovar typhimurium, s9, 72 h
[25] = Genotoxicity in Salmonella typhimurium TA100 assessed as number of revertants at 8x10^-6 mg/plate incubated for 72 hrs in presence of liver S9 fraction by Ames test (reference value: 204.33 +/- 8.14); assay type: toxicity, subcellular; conditions: salmonella enterica subsp. enterica serovar typhimurium, s9, 72 h
[26] = Genotoxicity in Salmonella typhimurium TA102 assessed as number of revertants at 2x10^-4 mg/plate incubated for 72 hrs in absence of liver S9 fraction by Ames test (reference value: 386.67 +/- 23.44); assay type: toxicity; conditions: salmonella enterica subsp. enterica serovar typhimurium, s9, 72 h
[27] = Genotoxicity in Salmonella typhimurium TA102 assessed as number of revertants at 4x10^-5 mg/plate incubated for 72 hrs in absence of liver S9 fraction by Ames test (reference value: 386.67 +/- 23.44); assay type: toxicity; conditions: salmonella enterica subsp. enterica serovar typhimurium, s9, 72 h
[28] = Genotoxicity in Salmonella typhimurium TA102 assessed as number of revertants at 8x10^-6 mg/plate incubated for 72 hrs in absence of liver S9 fraction by Ames test (reference value: 386.67 +/- 23.44); assay type: toxicity; conditions: salmonella enterica subsp. enterica serovar typhimurium, s9, 72 h
[29] = Genotoxicity in Salmonella typhimurium TA102 assessed as number of revertants at 1.6x10^-6 mg/plate incubated for 72 hrs in absence of liver S9 fraction by Ames test (reference value: 386.67 +/- 23.44); assay type: toxicity; conditions: salmonella enterica subsp. enterica serovar typhimurium, s9, 72 h
[30] = Genotoxicity in Salmonella typhimurium TA102 assessed as number of revertants at 1x10^-3 mg/plate incubated for 72 hrs in presence of liver S9 fraction by Ames test (reference value: 465.33 +/- 18.04); assay type: toxicity, subcellular; conditions: salmonella enterica subsp. enterica serovar typhimurium, s9, 72 h
[31] = Genotoxicity in Salmonella typhimurium TA102 assessed as number of revertants at 1.6x10^-6 mg/plate incubated for 72 hrs in presence of liver S9 fraction by Ames test (reference value: 465.33 +/- 18.04); assay type: toxicity, subcellular; conditions: salmonella enterica subsp. enterica serovar typhimurium, s9, 72 h
[32] = Genotoxicity in Salmonella typhimurium TA1535 assessed as number of revertants at 4x10^-5 mg/plate incubated for 72 hrs in absence of liver S9 fraction by Ames test (reference value: 14.33 +/- 0.58); assay type: toxicity; conditions: salmonella enterica subsp. enterica serovar typhimurium, s9, 72 h
[33] = Genotoxicity in Salmonella typhimurium TA1537 assessed as number of revertants at 2x10^-4 mg/plate incubated for 72 hrs in presence of liver S9 fraction by Ames test (reference value: 20 +/- 5); assay type: toxicity, subcellular; conditions: salmonella enterica subsp. enterica serovar typhimurium, s9, 72 h
[34] = Genotoxicity in Salmonella typhimurium TA1535 assessed as number of revertants at 1.6x10^-6 mg/plate incubated for 72 hrs in absence of liver S9 fraction by Ames test (reference value: 14.33 +/- 0.58); assay type: toxicity; conditions: salmonella enterica subsp. enterica serovar typhimurium, s9, 72 h

Question: With CC[C@H]1OC(=O)C[C@@H](O)[C@H](C)[C@@H](O[C@@H]2O[C@H](C)[C@@H](O)[C@H](N(C)C)[C@H]2O)[C@@H](CCN(C)Cc2cn(-c3cnc4ccccc4c3)nn2)C[C@@H](C)C(=O)/C=C/C(C)=C/[C@@H]1CN1CCCCCC1 as the compound, how does the Activity [1] read?
Answer: 42.33

Question: What about the Activity [2] of the same compound?
Answer: 45.67

Question: What about the Activity [3] of the same compound?
Answer: 64.33

Question: What about the Activity [4] of the same compound?
Answer: 63.33

Question: What about the Activity [5] of the same compound?
Answer: Non-Toxic

Question: And the Activity [6]?
Answer: Non-Toxic

Question: And the Activity (Staphylococcus aureus [7])?
Answer: Active

Question: What about the MIC (Staphylococcus aureus [8]) of the same compound?
Answer: 0.25 µg/mL (≈ 0.277 µM)

Question: And the MIC (Staphylococcus aureus [9])?
Answer: 0.25 µg/mL (≈ 0.277 µM)

Question: And the MIC (Escherichia coli [10])?
Answer: 1 µg/mL (≈ 1.11 µM)

Question: And the MIC (Escherichia coli [11])?
Answer: 4 µg/mL (≈ 4.43 µM)

Question: What about the MIC (Staphylococcus aureus [12]) of the same compound?
Answer: 2 µg/mL

Question: And the MIC (Escherichia coli [13])?
Answer: 1 µg/mL (≈ 1.11 µM)

Question: What about the MIC [14] of the same compound?
Answer: 0.25 µg/mL (≈ 0.277 µM)

Question: And the MBC (Escherichia coli [15])?
Answer: 2 µg/mL (≈ 2.22 µM)

Question: And the MBC (Staphylococcus aureus [16])?
Answer: 0.25 µg/mL (≈ 0.277 µM)

Question: What about the MIC (Escherichia coli [17]) of the same compound?
Answer: 0.25 µg/mL (≈ 0.277 µM)

Question: What about the MIC (Staphylococcus aureus [18]) of the same compound?
Answer: 2 µg/mL (≈ 2.22 µM)

Question: What about the MIC (Staphylococcus aureus [19]) of the same compound?
Answer: 0.25 µg/mL (≈ 0.277 µM)

Question: What about the MIC (Staphylococcus aureus [20]) of the same compound?
Answer: ≤ 0.0625 µg/mL

Question: And the MIC (Escherichia coli [21])?
Answer: 1 µg/mL

Question: And the MIC (Escherichia coli [22])?
Answer: 4 µg/mL

Question: And the MIC (Staphylococcus aureus [23])?
Answer: 0.5 µg/mL

Question: What about the Activity [24] of the same compound?
Answer: 201.67

Question: And the Activity [25]?
Answer: 167

Question: And the Activity [26]?
Answer: 449.33

Question: What about the Activity [27] of the same compound?
Answer: 429.33

Question: And the Activity [28]?
Answer: 425.33

Question: What about the Activity [29] of the same compound?
Answer: 371.33

Question: And the Activity [30]?
Answer: 449.33

Question: What about the Activity [31] of the same compound?
Answer: 449.33

Question: And the Activity [32]?
Answer: 6.33

Question: What about the Activity [33] of the same compound?
Answer: 15

Question: What about the Activity [34] of the same compound?
Answer: 6.67
